Test results: patent US20110281807A1, “PLANT DISEASE CONTROL AGENT COMPRISING D-TAGATOSE AS ACTIVE INGREDIENT, AND PLANT DISEASE CONTROL METHOD” (NATIONAL UNIVERSITY CORPORATION KAGAWA UNIVERSITY, priority 2008, published 2011)
Where “and” joins values, the source holds several entries; their conditions need not be identical. Identical values can stand only once. Like-named read-outs stand apart in the source and are kept apart here.

Tests used:
Phytophthora infestans [1] = assay: whole plant or invertebrate; type: in vivo; details: Phytophthora infestans, in Solanum lycopersicum, 168 h, read-out: Preventive value
Peronospora parasitica = assay: cabbage downy mildew, pot test: preventive effect; details: for Preventive value: inoculated 3 days after spraying
Protocol: Test plants (cabbage, variety: Shikidori) were seeded and grown until 4 leaves stage. […] Three days after spraying, a suspension containing condia of cucumber downy mildew (Peronospora parasitica) was inoculated by spraying on test plants. Seven days after inoculation the disease severity of the test plants was observed and the effectiveness of test sample was judged. Tests were carried out using two plants for each test set and the disease severity of test plants was judged in accordance with the following criteria. The preventive value was calculated from the degree of disease severity as in Example 1.

Pyricularia oryze = assay: whole plant or invertebrate; type: in vivo; details: Pyricularia, in Oryza sativa, 168 h, read-out: Preventive value
[2] = tested on: Pseudoperonospora cubensis; details: alone
Protocol: Test plants (cucumber, variety: Sagami hanpaku) were seeded and grown until the one true leaf stage. D-tagatose alone was diluted to 5%, 1%, 0.5% and 0.1%, and the combination of D-tagatose and other saccharide were diluted to be 0.5% and 0.5% solution respectively with distilled water, and then 10 ml of the dilution was sprayed on the test plant. Three days after spraying of the solution, a sporangium suspension of Pseudoperonospora cubensis containing 1×10^3/ml were inoculated by spraying on test plants and then put them for 16 hours in an inoculation chamber (20° C. to 23° C.) to promote disease. Seven days after inoculation the disease severity of the test plants was observed and the effectiveness of test sample was judged. Tests were carried out using two plants for each test set and the disease severity of the test plants was judged in accordance with the following criteria. The preventive value was calculated from the degree of disease severity as in example 1.
Synergistic effect was determined by the Colby's equation below.
X is the observed effect, in percentage, of the first active ingredient and, and Y is the observed effect, in percentage, of the second active ingredient. E is the effect, in percentage, of the mixture expected from additive contribution of the individual components.

Botrytis cinerea = details: Botrytis cinerea, in Solanum lycopersicum, 168 h, read-out: Preventive value
Protocol: Test plants (tomato, variety: Ogata-fukujyu) were seeded and grown until the three leaf stage. D-Tagatose and fungicide were diluted to 10000 ppm and the concentrations liste in table 23, respectively, with distilled water and 10 ml of the dilution was sprayed on the plants. Three days after spraying the solution, condia suspension of Botrytis cinerea were inoculated by spraying on test plants and then put for 16 hours in an inoculation chamber (20° C. to 23° C.) to promote disease. Seven days after inoculation, the disease severity of the test plants was observed and the effectiveness of test sample was judged.

[3] = tested on: Pseudoperonospora cubensis; details: Pseudoperonospora cubensis, in Cucumis sativus, 168 h, read-out: Preventive value
Protocol: Test plants (cucumber, variety: Sagami hanpaku) were seeded and grown until the one true leaf stage. D-Tagatose was diluted to 5000 ppm and the fungicides were diluted to the concentrations listed in table 14, with distilled water. And then 10 ml of the dilution was sprayed on the test plant. Three days after spraying of the solution, a sporangium suspension of Pseudoperonospora cubensis containing 1×10^3/ml were inoculated by spraying on test plants and then put for 16 hours in an inoculation chamber (20° C. to 23° C.) to promote disease. Seven days after inoculation the disease severity of the test plants was observed and the effectiveness of the test sample was judged. Tests were carried out using two plants for each test set and the disease severity of the test plants was judged in accordance with the following criteria. The preventive value was calculated from the degree of disease severity.
(§1) 0 (No lesion) 1 (Lesion area was not more than 40%) 2 ((Lesion area was 40%-80%) 3 (Lesion area was not less than 80%)
Preventive value=100{1−(n/N)} N=disease severity of untreated leaf, n=disease severity of the test leaf Synergistic effect was determined by Colby's equation.

Sphaerotheca fuligine = assay: cucumber powdery mildew, pot test: preventive effect; details: for Preventive value: inoculated 3 days after spraying
Protocol: Test plants (cucumber, variety: Sagami-hanpaku) were seeded and grown until the one true leaf stage. D-tagatose was diluted to 5% and 1% with distilled water and then 10 ml of the dilution was sprayed on the test plant. Three days after spraying, a condia suspension of Sphaerotheca fuligine was inoculated by spraying on test plants. Seven days after inoculation the disease severity of the test plants was observed and the effectiveness of test sample was judged. Tests were carried out using two plants for each test set and the disease severity of the test plants was judged in accordance with the following criteria.

Puccinia recondita [4] = assay: wheat brown rust, field trial
Protocol: Test plants (variety: Nourin 61 gou) were sowed and grown until heading stage. D-Tagatose was diluted to 5% with distilled water and sprayed thoroughly on the plants two times every 8 days. Three days after the first spraying of the dilution, wheat leaves inoculated with wheat fusarium blight (Puccinia recondita) were kept in the test plants. The disease severity of the test plants was observed 21 days after last spraying and the effectiveness of test sample was judged. Tests were carried out in duplicate. One plot of each test was 5 m^2. The disease severity of the test plants was judged in accordance with the following criteria. The preventive value was calculated from the degree of disease severity.

[5] = tested on: Pseudoperonospora cubensis; details: Pseudoperonospora cubensis, in Cucumis sativus, 168 h, read-out: Preventive value; remark: listed apart in the source
Protocol: Test plants (cucumber, variety: Sagami hanpaku) were seeded and grown until the one true leaf stage. And then, a sporangium suspension of Pseudoperonospora cubensis containing 1×10^3/ml were spraying for inoculation on the back side of the leaves of test plants and then put for 16 hours in an inoculation chamber (20° C. to 23° C.) to promote disease. For a curative test, the inoculated plants as described above were used.
D-Tagatose was diluted to 5000 ppm and the fungicides were diluted to the concentrations listed in table 15, with distilled water, and 10 ml of the dilution was sprayed. Seven days after inoculation the disease severity of the test plants was observed and the effectiveness of test sample was judged.

[6] = tested on: Pseudoperonospora cubensis; details: for Preventive value: 5 ml soil drench, inoculated 5 days after drenching
Protocol: Test plants (cucumber, variety: Sagami hanpaku) were seeded and grown until the one true leaf stage. D-Tagatose was diluted to 5% and 1% with distilled water and then 5 ml of the dilution was drenched into the soil of the pot. Five days after drenching, a sporangium suspension of Pseudoperonospora cubensis containing 1×10^3/ml were noculated by spraying on the test plants and then put them for 16 hours in an inoculation chamber (20° C. to 23° C.) to promote disease. Seven days after inoculation the disease severity of the test plants was observed and the effectiveness of test sample was judged. Tests were carried out using two plants for each test set and the disease severity of the test plants was judged. The preventive value was calculated from the degree of disease severity as in Example 1.

Puccinia recondita [7] = details: Puccinia recondita, in Triticum aestivum, 168 h, read-out: Preventive value
Protocol: Test plants (variety: Nourin 61 gou) were sowed and grown until two leaves stage.
D-Tagatose and fungicide were diluted to 10000 ppm and the concentration listed in table 19, respectively, with distilled water, and 10 ml of the dilution was sprayed thoroughly on the plants. Three days after the spraying of the dilution, the plants were inoculated with Puccinia recondita containing 1×10^3/ml and then put for 16 hours in an inoculation chamber (20° C. to 23° C.) to promote disease. Seven days after inoculation the disease severity of the test plants was observed and the effectiveness of test sample was judged.

Plasmopara viticola = assay: vine downy mildew, field test; details: for D.D.S (Degree of disease severity), Av / P.V. (Preventive value), Av / n/N × 100, Av: average of plots
Protocol: Test plants (variety: kyoho) were grown until approximately 10 leaves. […] After the first spraying of the dilution, grape leaves were infected by spraying a sporangium suspension of Plasmopara viticola containing 1×10^3/ml. The disease severity of the test plants was observed 7 days after last spraying, and the effectiveness of test sample was judged. Tests were carried out in triplicate using half of the test plant per each test. The disease severity of the test plants was judged in accordance with the following criteria. The preventive value was calculated from the degree of disease severity.
(§2) 0 (No lesion) 1 (Lesion area was not more than 5% of the leaf area) 2 ((Lesion area was 5%-25% of the leaf area) 3 (Lesion area was 25%-50% of the leaf area) 4 (Lesion area was not less than 50% of the leaf area)

[8] = tested on: Pseudoperonospora cubensis; assay: cucumber downy mildew, pot test: preventive effect; details: for Preventive value (3 DAS): inoculated 3 days after spraying; for Preventive value (5 DAS): inoculated 5 days after spraying
Protocol: Test plants (cucumber, variety: Sagami hanpaku) were seeded and grown until the one true leaf stage. D-Tagatose was diluted to 5%, 1% and 0.5% with distilled water and then 10 ml of the dilution was sprayed on the test plant. Three or five days after spraying, a sporangium suspension of Pseudoperonospora cubensis containing 1×10^3/ml were inoculated by spraying on test plants and then the plants were put for 16 hours in an incubation chamber (20° C. to 23° C.) to promote disease. Seven days after inoculation the disease severity of the test plants was observed and the effectiveness of test sample was judged. Tests were carried out using two plants for each test set and the disease severity of the test plants was judged in accordance with the following criteria. The preventive value was calculated from the degree of the disease severity.
as §1
Preventive value=100{1−(n/N)} N=disease severity of untreated leaf, n=disease severity of the tested leaf

Sphaerotheca fuliginea = assay: cucumber powdery mildew, field test; details: for D.D.S (Degree of disease severity), Av / P.V. (Preventive value), Av / n/N × 100, Av: average of plots
Protocol: Test plants (cucumber, variety: Ancor) were grown until approximately 10 leaves. […] After the first spraying of the dilution, the test plants were inoculated with condia of suspension of Sphaerotheca fuliginea. The disease severity of the test plants was observed 7 days after the last spraying, and the effectiveness of test sample was judged. Tests were carried out in triplicate using 8 plants per each test. The disease severity of the test plants was judged in accordance with the following criteria. The preventive value was calculated from the degree of disease severity.
as §2

[9] = tested on: Pseudoperonospora cubensis; assay: cucumber downy mildew, pot test: curative effect
Protocol: Test plants (cucumber, variety: Sagami hanpaku) were seeded and grown until the one true leaf stage. And then a sporangium suspension of Pseudoperonospora cubensis containing 1×10^3/ml were sprayed on the back side of the leaves of test plants for inoculation and then the plants were put for 16 hours in an inoculation chamber (20° C. to 23° C.) to promote disease. For a curative test, the inoculated plants as described above were used.
D-Tagatose was diluted to 5%, 1% and 0.5% with distilled water and then 10 ml of the dilution was sprayed on the test plant. Seven days after the spraying of D-tagatose the disease severity of the test plants was observed and the effectiveness of test sample was judged. Tests were carried out using two plants for each test set and the disease severity of the test plants was judged. The control value was calculated from the degree of disease severity as in Example 1.

Phytophthora infestans [10] = type: in vivo; details: for Preventive value: inoculated 3 days after spraying
[11] = tested on: Pseudoperonospora cubensis; assay: cucumber downy mildew, field trial; type: in vivo; details: for D.D.S (Degree of disease severity), Av / P.V. (Preventive value), Av / n/N × 100, Av: average of plots; for D.D.S (Degree of disease severity) / P.V. (Preventive value) / n/N × 100 / Disease severity 0: number of leaves / Disease severity 1: number of leaves / Disease severity 2: number of leaves / Disease severity 3: number of leaves / Disease severity 4: number of leaves: per plot (a, b); for Disease severity 0: number of leaves / Disease severity 1: number of leaves / Disease severity 2: number of leaves / Disease severity 3: number of leaves / Disease severity 4: number of leaves: 50 leaves
[12] = 50000 ppm, per plot (1, 2), 100 leaves
[13] = 10000 ppm, per plot (1-3), 50 leaves
[14] = 50000 ppm, per plot (1-3), 50 leaves
[15] = 50000 ppm spray, listed as D-tagatose
[16] = 10000 ppm, per plot (1, 2), 50 leaves
[17] = 50000 ppm, per plot (1, 2), 50 leaves

With `O=C(CO)[C@@H](O)[C@@H](O)[C@H](O)CO` [D-Tagatose, D-tagatose] the pest or weed control at 5000 ppm (Phytophthora infestans [1]) was 0%, the pest or weed control at 10000 ppm (Phytophthora infestans [1]) was 40% and the Preventive value (Peronospora parasitica; 10000 ppm spray) was 90.1. The Preventive value (Peronospora parasitica; 50000 ppm spray) was 95.1, the effectiveness in words (Peronospora parasitica; foliar spray) was “effective enough” and the pest or weed control at 10000 ppm (Pyricularia oryze) was 0%. It also gave a pest or weed control at 50000 ppm (Pyricularia oryze) of 50%, a Preventive value ([2]; 1000 ppm) of 0.0 and a Preventive value ([2]; 5000 ppm) of 8.3. For the same compound, the Preventive value ([2]; 10000 ppm) was 98.3, the Preventive value ([2]; 50000 ppm) was 100.0 and the pest or weed control at 10000 ppm (Botrytis cinerea) was 0%. For the same compound, the pest or weed control at 50000 ppm (Botrytis cinerea) was 17%, the pest or weed control at 5000 ppm [3] was 40% and the pest or weed control at 10000 ppm [3] was 83%. For the same compound, the Preventive value (Sphaerotheca fuligine; 10000 ppm spray) was 20.0, the Preventive value (Sphaerotheca fuligine; 50000 ppm spray) was 87.5 and the effectiveness in words (Sphaerotheca fuligine; foliar spray) was “effective enough”. The “D.D.S (Degree of disease severity), Av” value (Puccinia recondita [4]; 50000 ppm, average of plots) was 6.1, the “D.D.S (Degree of disease severity)” value (Puccinia recondita [4]; 50000 ppm, per plot (1, 2)) was 4.7 and 7.5 and the “Leaves number(n) of disease severity 0” value (Puccinia recondita [4]; [12]) was 76 and 68. For the same compound, the “Leaves number(n) of disease severity 1” value (Puccinia recondita [4]; [12]) was 22 and 25, the “Leaves number(n) of disease severity 4” value (Puccinia recondita [4]; [12]) was 0 and the “Leaves number(n) of disease severity 5” value (Puccinia recondita [4]; [12]) was 0. The “Leaves number(n) of disease severity 6” value (Puccinia recondita [4]; [12]) was 0, the “P.V. (Preventive value), Av” value (Puccinia recondita [4]; 50000 ppm, sprayed two times every 8 days, rated 21 days after last spraying) was 92.5 and the effectiveness in words (Puccinia recondita [4]; field trial) was “effective enough”. For the same compound, the pest or weed control at 5000 ppm [5] was 33%, the pest or weed control at 10000 ppm [5] was 73% and the Preventive value ([6]; 10000 ppm) was 95.0. For the same compound, the Preventive value ([6]; 10000 ppm, listed as D-tagatose) was 95, the Preventive value ([6]; 50000 ppm) was 100.0 and the Preventive value ([6]; 50000 ppm, listed as D-tagatose) was 100. For the same compound, the effectiveness in words ([6]; drench treatment) was “effective enough”, the pest or weed control at 10000 ppm (Puccinia recondita [7]) was 17% and the pest or weed control at 50000 ppm (Puccinia recondita [7]) was 50%. The “D.D.S (Degree of disease severity), Av” value (Plasmopara viticola; 10000 ppm) was 12.75, the “P.V. (Preventive value), Av” value (Plasmopara viticola; 10000 ppm) was 71.7 and the “n/N × 100, Av” value (Plasmopara viticola; 10000 ppm) was 31.0. The “D.D.S (Degree of disease severity)” value (Plasmopara viticola; 10000 ppm, per plot (1-3)) was 14.50 and 18.50 and 11.00, the “P.V. (Preventive value)” value (Plasmopara viticola; 10000 ppm, per plot (1-3)) was 72.0 and 64.3 and 78.7 and the “n/N × 100” value (Plasmopara viticola; 10000 ppm, per plot (1-3)) was 36.0 and 32.0 and 26.0. The “Disease severity 0: number of leaves” value (Plasmopara viticola; [13]) was 32 and 34 and 37, the “Disease severity 1: number of leaves” value (Plasmopara viticola; [13]) was 8 and 4 and the “D.D.S (Degree of disease severity), Av” value (Plasmopara viticola; 50000 ppm) was 0.00. The “P.V. (Preventive value), Av” value (Plasmopara viticola; 50000 ppm) was 99.4, the “n/N × 100, Av” value (Plasmopara viticola; 50000 ppm) was 0.0 and the “P.V. (Preventive value)” value (Plasmopara viticola; 50000 ppm, per plot (1-3)) was 100.0 and 93.1. The “Disease severity 0: number of leaves” value (Plasmopara viticola; [14]) was 50 and 48, the “Disease severity 2: number of leaves” value (Plasmopara viticola; [14]) was 0 and the “Disease severity 3: number of leaves” value (Plasmopara viticola; [14]) was 0. For the same compound, the “Disease severity 4: number of leaves” value (Plasmopara viticola; [14]) was 0, the effectiveness in words (Plasmopara viticola; field test) was “effective enough” and the “Preventive value (3 DAS)” value ([8]; 5000 ppm spray) was 49.2. The “Preventive value (5 DAS)” value ([8]; 5000 ppm spray) was 37.5, the “Preventive value (3 DAS)” value ([8]; 10000 ppm spray) was 99.2 and the “Preventive value (5 DAS)” value ([8]; 10000 ppm spray) was 90.0. The “Preventive value (5 DAS)” value ([8]; 10000 ppm spray, listed as D-tagatose) was 90, the “Preventive value (3 DAS)” value ([8]; 50000 ppm spray) was 100.0 and the “Preventive value (3 DAS)” value [8, 15] was 100. For the same compound, the “Preventive value (5 DAS)” value ([8]; 50000 ppm spray) was 100.0, the “Preventive value (5 DAS)” value [8, 15] was 100 and the “D.D.S (Degree of disease severity), Av” value (Sphaerotheca fuliginea; 10000 ppm) was 5.75. For the same compound, the “P.V. (Preventive value), Av” value (Sphaerotheca fuliginea; 10000 ppm) was 94.0, the “n/N × 100, Av” value (Sphaerotheca fuliginea; 10000 ppm) was 15.0 and the “D.D.S (Degree of disease severity)” value (Sphaerotheca fuliginea; 10000 ppm, per plot (1, 2)) was 8.00. For the same compound, the “P.V. (Preventive value)” value (Sphaerotheca fuliginea; 10000 ppm, per plot (1, 2)) was 96.4 and 91.7, the “Disease severity 0: number of leaves” value (Sphaerotheca fuliginea; [16]) was 46 and 39 and the “Disease severity 3: number of leaves” value (Sphaerotheca fuliginea; [16]) was 1. The “Disease severity 4: number of leaves” value (Sphaerotheca fuliginea; [16]) was 0, the “D.D.S (Degree of disease severity), Av” value (Sphaerotheca fuliginea; 50000 ppm) was 1.25 and the “P.V. (Preventive value), Av” value (Sphaerotheca fuliginea; 50000 ppm) was 98.7. The “n/N × 100, Av” value (Sphaerotheca fuliginea; 50000 ppm) was 5.0, the “D.D.S (Degree of disease severity)” value (Sphaerotheca fuliginea; 50000 ppm, per plot (1, 2)) was 1.00 and 1.50 and the “P.V. (Preventive value)” value (Sphaerotheca fuliginea; 50000 ppm, per plot (1, 2)) was 99.0 and 98.4. For the same compound, the “n/N × 100” value (Sphaerotheca fuliginea; 50000 ppm, per plot (1, 2)) was 4.0 and 6.0, the “Disease severity 0: number of leaves” value (Sphaerotheca fuliginea; [17]) was 48 and 47 and the “Disease severity 1: number of leaves” value (Sphaerotheca fuliginea; [17]) was 2 and 3. For the same compound, the “Disease severity 2: number of leaves” value (Sphaerotheca fuliginea; [17]) was 0, the “Disease severity 3: number of leaves” value (Sphaerotheca fuliginea; [17]) was 0 and the “Disease severity 4: number of leaves” value (Sphaerotheca fuliginea; [17]) was 0. For the same compound, the effectiveness in words (Sphaerotheca fuliginea; field test) was “effective enough”, the “Preventive value (control value)” value ([9]; 5000 ppm sprayed after inoculation (curative)) was 22.5 and the “Preventive value (control value)” value ([9]; 10000 ppm sprayed after inoculation (curative)) was 91.7. The “Preventive value (control value)” value ([9]; 50000 ppm sprayed after inoculation (curative)) was 100.0, the “Preventive value (control value)” value ([9]; 50000 ppm sprayed after inoculation (curative), listed as D-tagatose) was 100 and the effectiveness in words ([9]; curative test condition) was “effective enough”. The Preventive value (Phytophthora infestans [10]; 50000 ppm spray) was 28.3, the Preventive value (Phytophthora infestans [10]; 100000 ppm spray) was 58.3 and the effectiveness in words (Phytophthora infestans [10]; foliar spray) was “effective enough”. The “D.D.S (Degree of disease severity), Av” value ([11]; 10000 ppm) was 2.25, the “P.V. (Preventive value), Av” value ([11]; 10000 ppm) was 96.5 and the “n/N × 100, Av” value ([11]; 10000 ppm) was 9.0. For the same compound, the “D.D.S (Degree of disease severity)” value ([11]; 10000 ppm) was 3.00 and 1.50, the “P.V. (Preventive value)” value ([11]; 10000 ppm) was 95.4 and 97.7 and the “n/N × 100” value ([11]; 10000 ppm) was 12.0 and 6.0. The “Disease severity 0: number of leaves” value ([11]; 10000 ppm) was 44 and 47, the “Disease severity 1: number of leaves” value ([11]; 10000 ppm) was 6 and 3 and the “Disease severity 2: number of leaves” value ([11]; 10000 ppm) was 0. The “Disease severity 3: number of leaves” value ([11]; 10000 ppm) was 0, the “Disease severity 4: number of leaves” value ([11]; 10000 ppm) was 0 and the “D.D.S (Degree of disease severity), Av” value ([11]; 50000 ppm) was 2.50. The “P.V. (Preventive value), Av” value ([11]; 50000 ppm) was 96.1, the “n/N × 100, Av” value ([11]; 50000 ppm) was 10.0 and the “D.D.S (Degree of disease severity)” value ([11]; 50000 ppm) was 3.00 and 2.00. The “P.V. (Preventive value)” value ([11]; 50000 ppm) was 95.4 and 96.9, the “n/N × 100” value ([11]; 50000 ppm) was 12.0 and 8.0 and the “Disease severity 0: number of leaves” value ([11]; 50000 ppm) was 44 and 46. For the same compound, the “Disease severity 1: number of leaves” value ([11]; 50000 ppm) was 6 and 4, the “Disease severity 2: number of leaves” value ([11]; 50000 ppm) was 0 and the “Disease severity 3: number of leaves” value ([11]; 50000 ppm) was 0. For the same compound, the “Disease severity 4: number of leaves” value ([11]; 50000 ppm) was 0 and the effectiveness in words ([11]; field test) was “effective enough”.
